Entries after “also recorded” stand apart in the source; their conditions may differ.
Tests used:
human NK1 receptor = human NK1 receptor (Homo sapiens, UniProt P25103); type: cell-based; settings: shift of the dose-response curve of SP, aequorin luminescence, CHO-NK1 cells
[1] = acute pain models; chronic trials; cited from earlier work
[2] = cited from earlier work

Chain of human NK1 receptor (P25103 whole entry): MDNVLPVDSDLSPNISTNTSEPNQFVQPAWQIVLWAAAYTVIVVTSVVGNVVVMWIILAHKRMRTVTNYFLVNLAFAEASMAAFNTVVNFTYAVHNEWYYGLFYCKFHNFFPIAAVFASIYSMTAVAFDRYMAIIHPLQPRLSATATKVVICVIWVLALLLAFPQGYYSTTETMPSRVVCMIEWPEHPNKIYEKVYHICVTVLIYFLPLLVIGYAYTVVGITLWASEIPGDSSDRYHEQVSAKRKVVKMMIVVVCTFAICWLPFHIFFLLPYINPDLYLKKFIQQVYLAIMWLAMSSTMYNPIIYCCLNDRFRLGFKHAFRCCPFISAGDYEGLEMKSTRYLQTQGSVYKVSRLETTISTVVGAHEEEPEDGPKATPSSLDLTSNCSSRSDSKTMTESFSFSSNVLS

CC(=O)N1Cc2[nH]c3ccccc3c2C[C@H]1C(=O)N(C)Cc1cc(C(F)(F)F)cc(C(F)(F)F)c1 [32a]
NK1R antagonism (in words) (human NK1 receptor): did not show any antagonist properties

CC(=O)N1Cc2ccccc2C[C@H]1C(=O)N(C)Cc1cc(C(F)(F)F)cc(C(F)(F)F)c1 [compound 23, Ac-Tic-NMe-3′,5′-(CF3)2-Bn]
NK1R antagonism (in words) (human NK1 receptor): able to counteract the effect of SP and good

CC(=O)N[C@H]1Cc2ccccc2CN(CC(=O)N(C)Cc2cc(C(F)(F)F)cc(C(F)(F)F)c2)C1=O [compound 20, Ac-(S)-Aba-Gly-NMe-3′,5′-(CF3)2-Bn]
NK1R antagonism (in words) (human NK1 receptor): able to counteract the effect of SP and good

H-Tyr-D-Ala-Gly-Phe-Met-Pro-Leu-Trp-O-3′,5′-Bn(CF3)2 [compound 7]
Antinociception and opioid-induced tolerance (in words) [1]: enhanced antinociception in acute pain models and prevention of opioid-induced tolerance in chronic trials
Attenuation of neuropathic pain (in words) [2]: potently attenuate neuropathic pain without producing opioid-induced tolerance

CC(=O)N[C@H]1Cc2c([nH]c3ccccc23)CN(Cc2cc(C(F)(F)F)cc(C(F)(F)F)c2)C1=O [compound 30]
NK1R antagonism (in words) (human NK1 receptor): did not show any antagonist properties

CC(=O)N[C@H]1Cc2c([nH]c3ccccc23)CN(CC(=O)N(C)Cc2cc(C(F)(F)F)cc(C(F)(F)F)c2)C1=O [28a]
NK1R antagonism (in words) (human NK1 receptor): did not show any antagonist properties

H-Tyr-D-Ala-Gly-Phe-Met-Pro-Leu-Trp-NH-3′,5′-Bn(CF3)2 [compound 6]
Antinociception and opioid-induced tolerance (in words) [1]: enhanced antinociception in acute pain models and prevention of opioid-induced tolerance in chronic trials
Attenuation of neuropathic pain (in words) [2]: potently attenuate neuropathic pain without producing opioid-induced tolerance

CC(=O)N1Cc2ccccc2C[C@H]1C(=O)NCc1cc(C(F)(F)F)cc(C(F)(F)F)c1 [compound 22]
NK1R antagonism (in words) (human NK1 receptor): lack of antagonism

CC(=O)N[C@H]1Cc2ccccc2CN(CC(=O)NCc2cc(C(F)(F)F)cc(C(F)(F)F)c2)C1=O [compound 19, Ac-(S)-Aba-Gly-NH-3′,5′-(CF3)2-Bn]
NK1R antagonism (in words) (human NK1 receptor): able to counteract the effect of SP; also recorded: moderate

— PMC3096782 (Journal of medicinal chemistry, 2011)
